Where a name gives a salt, the structure may show the parent alone. Read-outs that look alike come from different tables or passages of the source.

One data set relates to mice (ICR, female). As to the kind of experiment: Acute Toxicity Test. The settings on record: intraperitoneal. Type of data set: in vivo. On the procedure: The pH was adjusted to 7.0 by use of 5N NaOH. Solutions having lower concentrations were prepared by dilution with physiological saline. Each solution (10 μl) was intraperitoneally injected to mice (ICR, female, 6-weeks old, 29 g), and the survival ratio was obtained.

Data set [1] has as its system rat hepatocyte system in primary culture.
Protocol: In separation and identification of the low molecular weight factor showing hepatocyte proliferation promoting activity derived from epithelial mucosa of the bovine small intestine, the rat hepatocyte system in primary culture was used. To this culture system, a fraction of a crude extract of bovine small intestine epithelial mucosa in the course of purification was added in the presence of high molecular weight factor extract (1%) and insulin (10 μg/ml) or in the presence of EGF (20 ng/ml) and insulin (10 μg/ml), to thereby establish an assay system for measuring the uptake of ^3 H-TdR into DNA of rat hepatocyte nuclei.
Fractions each amounting 15 ml was added to the above-mentioned assay system and the uptake of ^3 H-TdR was measured.
In data set [2] the test system is liver disorder induced by carbon tetrachloride. In words: GOT and GPT tests in mice with liver disorder induced by carbon tetrachloride. Type of data set: in vivo, ddY mice. On the procedure: Carbon tetrachloride (5 ml, Wako Pure Chemicals) was put in a glass vial, and Panasate 800 (45 ml, Nippon Yushi Chemicals Co, Ltd.) was added to prepare a 10% (v/v) solution.
Subsequently,the total amount was made to 50 ml. An aliquot of 2 ml was diluted in 38 ml of physiological saline.
One group consisted of 10 mice. For 24 hours prior to the administration of tetrachloride, each mouse was fasted by being fed water only. 10% carbon tetrachloride/Panasate solution was intraperitoneally administered to each mice at a dose of 1 ml/kg.
Blood was collected from the abdominal aorta by use of 1-ml disposable syringes (Terumo). The blood, dispensed into 1.5 ml Eppendorf tubes, was subjected to centrifugal separation at 5,000 rpm for 10 minutes to thereby obtain serum. The activity of transaminase (GOT, GPT) in the serum thus obtained was measured. The measurement was performed by use of a Cobas Mira System (Baxter).

[3] abbreviates: intraperitoneal, 2.8 mg/kg, 2 times.

Take `NCCO` [EA-HC1, monoethanolamine-HCl]: the Survival in the data set on mice (ICR, female) (0.5 g/kg (as EA), 1 day after admin.) was 4/4; with mice (ICR, female) (0.5 g/kg (as EA), 6 days after admin.), 4/4; in the data set on mice (ICR, female) (0.5 g/kg (as EA), day of administration) it was 4/4; in the data set with mice (ICR, female) (1.25 g/kg (as EA), 1 day after admin.), 3/3; in the data set with mice (ICR, female) (1.25 g/kg (as EA), 6 days after admin.), 3/3; in the data set on mice (ICR, female) (1.25 g/kg (as EA), day of administration) it was 3/3. Besides, the Survival in the data set on mice (ICR, female) (2.5 g/kg (as EA), day of administration) is 0/4; in the data set with mice (ICR, female) (5.0 g/kg (as EA), day of administration) it was 0/4; in the data set on mice (ICR, female) (doses equal to or less than 1.25 g/kg, six days) it was “alive when six days had passed”. Also, the “time to death after administration” value in the data set with mice (ICR, female) (2.5 g/kg) is at most 30 min; with mice (ICR, female) (5.0 g/kg), at most 30 min.
Take `NCCO` [ethanolamine, monoethanolamine]: the 3H-TdR uptake activity entry in data set [1] (in the presence of EGF) and in data set [1] (in the presence of the high molecular weight factor extract) was “synergistic growth-stimulating effects” each time. In data set [2] (2.8 mg/kg i.p. and 16 mg/kg p.o.), the “area of necrosis in histopathological profile of the liver” value is “tendency that the area of necrosis was reduced”. Further, the “serum GOT level” value in data set [2] (setting [3]) was “significantly decreased”; in data set [2] (peroral, 16 mg/kg, once) it was “significantly decreased”. The “serum GPT level” value is on record as “significantly decreased” in data set [2] (setting [3]) and “significantly decreased” in data set [2] (peroral, 16 mg/kg, once).

Source of the values: US5916924A, “Remedies for liver diseases” (Meiji Milk Products Co., Ltd., priority 1997, dated 1999).
